Laboratory results reported in the NIST ThermoML archive (doi:10.1021/acs.jced.8b00132).
Where “and” joins values, the source holds several entries; their conditions need not be identical. Equal values may be shown once.

Conditions: Liquid, transient hot wire

O=C(C(F)(F)C(F)(F)F)C(F)(C(F)(F)F)C(F)(F)F [dodecafluoro-2-methylpentan-3-one]
Conditions	thermal conductivity
182.75 K, 277 kPa	0.07883 W/m/K
182.75 K, 315 kPa	0.07859 W/m/K
182.89 K, 13189 kPa	0.08133 W/m/K
182.89 K, 19887 kPa	0.08218 W/m/K
182.89 K, 19910 kPa	0.08244 W/m/K
182.89 K, 21592 kPa	0.08301 W/m/K
182.89 K, 21600 kPa	0.08295 W/m/K
182.9 K, 13187 kPa	0.08114 W/m/K
183.09 K, 352 kPa	0.0792 W/m/K
183.09 K, 355 kPa	0.07913 W/m/K
183.16 K, 13354 kPa	0.08121 W/m/K
183.16 K, 13358 kPa	0.08178 W/m/K
183.18 K, 6554 kPa	0.07996 W/m/K
183.18 K, 6555 kPa	0.08035 W/m/K
183.19 K, 88 kPa	0.07924 W/m/K
183.19 K, 92 kPa	0.07941 W/m/K
183.21 K, 21596 kPa	0.08274 W/m/K
183.21 K, 21614 kPa	0.08282 W/m/K
183.22 K, 13197 kPa	0.08104 W/m/K
183.22 K, 13203 kPa	0.08122 W/m/K
183.22 K, 19909 kPa	0.08195 W/m/K
183.22 K, 19917 kPa	0.08246 W/m/K
183.46 K, 394 kPa	0.07899 W/m/K
183.47 K, 372 kPa	0.07904 W/m/K
183.49 K, 13357 kPa	0.0812 W/m/K
183.49 K, 13358 kPa	0.08133 W/m/K
183.51 K, 6548 kPa	0.08023 W/m/K
183.51 K, 6554 kPa	0.08027 W/m/K
183.52 K, 86 kPa	0.07888 W/m/K
183.53 K, 84 kPa	0.07899 W/m/K
183.57 K, 19904 kPa	0.08223 W/m/K
183.57 K, 19917 kPa	0.08242 W/m/K
183.57 K, 21616 kPa	0.0827 W/m/K
183.57 K, 21619 kPa	0.08258 W/m/K
183.58 K, 13189 kPa	0.08088 W/m/K and 0.0813 W/m/K
183.86 K, 13353 kPa	0.08129 W/m/K
183.86 K, 13354 kPa	0.08129 W/m/K
183.88 K, 417 kPa	0.07826 W/m/K
183.88 K, 441 kPa	0.07853 W/m/K
183.88 K, 6566 kPa	0.0801 W/m/K
183.88 K, 6568 kPa	0.07993 W/m/K
183.9 K, 66 kPa	0.07888 W/m/K
183.96 K, 21629 kPa	0.08212 W/m/K
183.97 K, 19889 kPa	0.08191 W/m/K
183.97 K, 19910 kPa	0.08222 W/m/K
183.97 K, 21622 kPa	0.0819 W/m/K
183.98 K, 13198 kPa	0.08092 W/m/K
183.98 K, 13202 kPa	0.08101 W/m/K
184.26 K, 13357 kPa	0.08106 W/m/K
184.26 K, 13366 kPa	0.08106 W/m/K
184.29 K, 6565 kPa	0.07964 W/m/K
184.29 K, 6575 kPa	0.07978 W/m/K
184.31 K, 72 kPa	0.07867 W/m/K
184.31 K, 77 kPa	0.07869 W/m/K
184.34 K, 428 kPa	0.07819 W/m/K
184.34 K, 453 kPa	0.0783 W/m/K
184.41 K, 19891 kPa	0.08157 W/m/K
184.41 K, 19917 kPa	0.08156 W/m/K
184.41 K, 21623 kPa	0.08222 W/m/K
184.41 K, 21641 kPa	0.08226 W/m/K
184.43 K, 13196 kPa	0.0804 W/m/K
184.43 K, 13197 kPa	0.08067 W/m/K
184.7 K, 13354 kPa	0.08048 W/m/K
184.71 K, 13360 kPa	0.0804 W/m/K
184.74 K, 6561 kPa	0.07906 W/m/K
184.74 K, 6562 kPa	0.07913 W/m/K
184.76 K, 74 kPa	0.07764 W/m/K
184.77 K, 70 kPa	0.07835 W/m/K
191.32 K, 109 kPa	0.078 W/m/K
191.32 K, 120 kPa	0.07787 W/m/K
191.32 K, 6011 kPa	0.07821 W/m/K
191.32 K, 6012 kPa	0.0792 W/m/K
191.32 K, 9411 kPa	0.08012 W/m/K
191.33 K, 9419 kPa	0.07979 W/m/K
191.63 K, 28269 kPa	0.08273 W/m/K
191.63 K, 28273 kPa	0.08292 W/m/K
191.63 K, 36162 kPa	0.08425 W/m/K
191.64 K, 36124 kPa	0.08408 W/m/K
191.64 K, 44196 kPa	0.08537 W/m/K
191.64 K, 44213 kPa	0.08541 W/m/K
191.64 K, 52630 kPa	0.08621 W/m/K
191.65 K, 52615 kPa	0.08649 W/m/K
191.65 K, 61105 kPa	0.08792 W/m/K
191.65 K, 61123 kPa	0.08784 W/m/K
191.65 K, 67633 kPa	0.08918 W/m/K
191.65 K, 67642 kPa	0.08859 W/m/K
191.66 K, 154 kPa	0.07783 W/m/K
191.66 K, 6412 kPa	0.07892 W/m/K
191.66 K, 6427 kPa	0.07902 W/m/K
191.66 K, 13243 kPa	0.0804 W/m/K
191.66 K, 13255 kPa	0.08025 W/m/K
191.66 K, 20239 kPa	0.08175 W/m/K
191.66 K, 20246 kPa	0.08164 W/m/K
191.67 K, 112 kPa	0.07744 W/m/K
191.67 K, 147 kPa	0.07786 W/m/K
191.67 K, 6032 kPa	0.07883 W/m/K
191.67 K, 9411 kPa	0.07946 W/m/K
191.67 K, 9418 kPa	0.07986 W/m/K
191.68 K, 121 kPa	0.07734 W/m/K
191.68 K, 6013 kPa	0.07908 W/m/K
192 K, 28272 kPa	0.08275 W/m/K
192 K, 36150 kPa	0.084 W/m/K
192 K, 36164 kPa	0.08417 W/m/K
192 K, 44217 kPa	0.08526 W/m/K
192 K, 52622 kPa	0.08646 W/m/K
192 K, 52639 kPa	0.08637 W/m/K
192 K, 61093 kPa	0.08779 W/m/K
192 K, 67605 kPa	0.08855 W/m/K
192.01 K, 28268 kPa	0.08282 W/m/K
192.01 K, 44219 kPa	0.08526 W/m/K
192.01 K, 61086 kPa	0.08772 W/m/K
192.01 K, 67622 kPa	0.08858 W/m/K
192.04 K, 6436 kPa	0.07895 W/m/K
192.04 K, 13246 kPa	0.08024 W/m/K
192.04 K, 13262 kPa	0.08043 W/m/K
192.04 K, 20234 kPa	0.08155 W/m/K
192.05 K, 6439 kPa	0.07899 W/m/K
192.05 K, 20236 kPa	0.0816 W/m/K
192.06 K, 157 kPa	0.07749 W/m/K
192.06 K, 162 kPa	0.07742 W/m/K
192.06 K, 9415 kPa	0.07961 W/m/K
192.06 K, 9425 kPa	0.07956 W/m/K
192.07 K, 124 kPa	0.07716 W/m/K
192.07 K, 6029 kPa	0.07889 W/m/K
192.07 K, 6037 kPa	0.07899 W/m/K
192.08 K, 123 kPa	0.07723 W/m/K
192.39 K, 61059 kPa	0.08761 W/m/K
192.39 K, 67589 kPa	0.08872 W/m/K
192.4 K, 44218 kPa	0.08528 W/m/K
192.4 K, 52626 kPa	0.08558 W/m/K
192.4 K, 61080 kPa	0.08772 W/m/K
192.4 K, 67603 kPa	0.08923 W/m/K
192.41 K, 28286 kPa	0.08272 W/m/K
192.41 K, 36171 kPa	0.08404 W/m/K
192.41 K, 44213 kPa	0.08463 W/m/K
192.41 K, 52617 kPa	0.08563 W/m/K
192.42 K, 28275 kPa	0.08201 W/m/K
192.42 K, 36146 kPa	0.08395 W/m/K
192.45 K, 20243 kPa	0.08132 W/m/K
192.46 K, 20239 kPa	0.08136 W/m/K
192.47 K, 13253 kPa	0.08039 W/m/K
192.47 K, 13262 kPa	0.08013 W/m/K
192.48 K, 6426 kPa	0.07848 W/m/K
192.48 K, 6434 kPa	0.07874 W/m/K
192.49 K, 9414 kPa	0.0792 W/m/K
192.5 K, 157 kPa	0.07741 W/m/K
192.5 K, 161 kPa	0.07715 W/m/K
192.5 K, 6046 kPa	0.07875 W/m/K and 0.07884 W/m/K
192.5 K, 9410 kPa	0.07887 W/m/K
192.51 K, 147 kPa	0.0771 W/m/K
192.52 K, 131 kPa	0.07714 W/m/K
192.82 K, 67573 kPa	0.08822 W/m/K
192.82 K, 67584 kPa	0.08836 W/m/K
192.83 K, 52603 kPa	0.08551 W/m/K
192.83 K, 61059 kPa	0.08671 W/m/K
192.83 K, 61067 kPa	0.08703 W/m/K
192.84 K, 44211 kPa	0.08516 W/m/K
192.84 K, 52611 kPa	0.08588 W/m/K
192.85 K, 44221 kPa	0.08537 W/m/K
192.86 K, 36164 kPa	0.08389 W/m/K and 0.08381 W/m/K
192.87 K, 28295 kPa	0.08266 W/m/K
192.87 K, 28317 kPa	0.08252 W/m/K
192.92 K, 20232 kPa	0.08125 W/m/K
192.92 K, 20252 kPa	0.08125 W/m/K
192.94 K, 13254 kPa	0.08003 W/m/K
192.96 K, 6419 kPa	0.07805 W/m/K
192.96 K, 6437 kPa	0.07805 W/m/K
